Reference: ChEMBL document CHEMBL5543060, “Technologies of targeting histone deacetylase in drug discovery: Current progress and emerging prospects” (Eur J Med Chem, 2023)

Legend:
Histone deacetylase 3 [1] = molecular target: T1, Histone deacetylase 3 (Homo sapiens, UniProt O15379); assay: Inhibition of HDAC3 (unknown origin) using biotinylated histone H3 KAc peptide as substrate pretreated with compound for 1 hrs followed by substrate addition measured after 1 hrs by microplate reader analysis by HTRF assay
[2] = molecular target: T2, Protein cereblon/Histone deacetylase 8 (Homo sapiens, UniProt Q9BY41+Q96SW2); assay: PROTAC activity at HDAC8/CRBN in human HCT-116 cells assessed as degradation of HDAC8 measured after 10 hrs in presence of E3 ligase inhibitor by Western blot analysis; type: cell-based
[3] = molecular target: T3, Protein deacetylase HDAC6 (Homo sapiens, UniProt Q9UBN7); assay: Inhibition of HDAC6 (unknown origin) using Ac-peptide as substrate preincubated for 15 mins followed by substrate addition and measured after 1 hr by fluorescence based assay
T3 sequence (Q9UBN7 whole entry): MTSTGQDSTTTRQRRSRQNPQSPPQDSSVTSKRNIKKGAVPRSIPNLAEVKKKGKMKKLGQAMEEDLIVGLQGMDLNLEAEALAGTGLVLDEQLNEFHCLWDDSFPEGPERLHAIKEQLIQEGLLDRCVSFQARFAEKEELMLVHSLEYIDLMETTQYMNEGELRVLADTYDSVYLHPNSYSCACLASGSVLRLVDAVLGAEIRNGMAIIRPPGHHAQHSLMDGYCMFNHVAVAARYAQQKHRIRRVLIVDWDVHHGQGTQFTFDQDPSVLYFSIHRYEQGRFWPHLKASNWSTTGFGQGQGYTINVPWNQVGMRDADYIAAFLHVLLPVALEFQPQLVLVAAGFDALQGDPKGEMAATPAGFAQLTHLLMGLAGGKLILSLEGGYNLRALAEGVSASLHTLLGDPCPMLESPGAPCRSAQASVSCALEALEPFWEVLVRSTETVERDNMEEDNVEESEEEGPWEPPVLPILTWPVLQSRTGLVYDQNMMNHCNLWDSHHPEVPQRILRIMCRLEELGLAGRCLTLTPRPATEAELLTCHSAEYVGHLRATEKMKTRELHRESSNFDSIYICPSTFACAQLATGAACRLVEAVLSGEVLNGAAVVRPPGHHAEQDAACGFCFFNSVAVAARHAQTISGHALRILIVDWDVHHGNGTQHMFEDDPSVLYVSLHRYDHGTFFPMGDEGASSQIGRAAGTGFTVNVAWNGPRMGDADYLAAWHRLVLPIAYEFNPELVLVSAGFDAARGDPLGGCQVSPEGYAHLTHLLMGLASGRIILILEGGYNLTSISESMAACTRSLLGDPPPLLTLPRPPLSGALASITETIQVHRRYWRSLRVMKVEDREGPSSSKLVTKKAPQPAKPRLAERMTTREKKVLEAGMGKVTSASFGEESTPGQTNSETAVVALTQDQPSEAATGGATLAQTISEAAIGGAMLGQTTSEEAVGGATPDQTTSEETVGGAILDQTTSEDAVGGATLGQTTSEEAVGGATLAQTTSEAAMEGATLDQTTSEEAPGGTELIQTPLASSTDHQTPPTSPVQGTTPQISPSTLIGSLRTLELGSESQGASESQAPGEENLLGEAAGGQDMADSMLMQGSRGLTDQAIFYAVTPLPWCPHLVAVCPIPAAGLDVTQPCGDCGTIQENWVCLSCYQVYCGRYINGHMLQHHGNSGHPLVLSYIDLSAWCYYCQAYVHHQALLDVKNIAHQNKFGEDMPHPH

[4] = molecular target: von Hippel-Lindau disease tumor suppressor/Histone deacetylase 2 (Homo sapiens, UniProt Q92769+P40337); assay: PROTAC activity at VHL/HDAC2 in human ES1 cells assessed as HDAC2 degradation by fluorescence based assay; type: cell-based
[5] = molecular target: von Hippel-Lindau disease tumor suppressor/Histone deacetylase 1 (Homo sapiens, UniProt Q13547+P40337); assay: PROTAC activity at VHL/HDAC1 in human ES1 cells assessed as HDAC1 degradation by fluorescence based assay; type: cell-based
[6] = molecular target: Protein cereblon/Histone deacetylase 3 (Homo sapiens, UniProt O15379+Q96SW2); assay: Protac activity at CRBN/HDAC3 in human MDA-MB-468 cells assessed as HDAC3 degradation measured after 14 hrs by Western blot analysis; type: cell-based
[7] = molecular target: von Hippel-Lindau disease tumor suppressor/Protein deacetylase HDAC6 (Homo sapiens, UniProt Q9UBN7+P40337); assay: Protac activity at VHL/HDAC6 in human MDA-MB-468 cells assessed as HDAC6 degradation measured after 14 hrs by Western blot analysis; type: cell-based
Histone deacetylase 8 [8] = molecular target: T4, Histone deacetylase 8 (Homo sapiens, UniProt Q9BY41); assay: Inhibition of HDAC8 (unknown origin) using Fluoro-Substrate Peptide as substrate by fluorescence based assay
T4 sequence (Q9BY41 whole entry): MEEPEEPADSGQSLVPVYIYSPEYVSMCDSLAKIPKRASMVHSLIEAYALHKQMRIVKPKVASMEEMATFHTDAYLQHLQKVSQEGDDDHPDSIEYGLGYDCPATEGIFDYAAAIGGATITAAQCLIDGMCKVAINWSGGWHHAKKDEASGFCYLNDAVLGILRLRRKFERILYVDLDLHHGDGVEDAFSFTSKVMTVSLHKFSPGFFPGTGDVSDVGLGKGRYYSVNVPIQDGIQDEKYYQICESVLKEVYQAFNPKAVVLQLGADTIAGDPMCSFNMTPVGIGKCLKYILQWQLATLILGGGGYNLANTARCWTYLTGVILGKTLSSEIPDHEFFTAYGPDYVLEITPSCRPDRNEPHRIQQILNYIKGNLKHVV

Histone deacetylase 1 [9] = molecular target: T5, Histone deacetylase 1 (Homo sapiens, UniProt Q13547); assay: Inhibition of human recombinant HDAC1 using Ac-RHKK(Acetyl)-AMC peptide as fluorogenic substrate pre-incubated for 30 mins followed by substrate addition and measured for 60 mins by fluorescence based analysis
Histone deacetylase 2 = Histone deacetylase 2 (Homo sapiens, UniProt Q92769); assay: Inhibition of human recombinant HDAC2 using Ac-RHKK(Acetyl)-AMC peptide as fluorogenic substrate pre-incubated for 30 mins followed by substrate addition and measured for 60 mins by fluorescence based analysis
[10] = molecular target: Cyclin-dependent kinase 4 (Homo sapiens, UniProt P11802); assay: Inhibition of CDK4 (unknown origin)
Histone deacetylase 8 [11] = molecular target: T4, Histone deacetylase 8; assay: Inhibition of human recombinant His-tagged HDAC8 expressed in Escherichia coli BL21 (DE3) using ArgHisLysLys(Ac) as substrate pre-incubated for 1 hr and measured after 1 hr by fluorescence based analysis
Histone deacetylase 1 [12] = molecular target: T5, Histone deacetylase 1; assay: Inhibition of HDAC1 (unknown origin)
[13] = Metabolic stability in human Hepatocyte assessed as half life by LC-MS/MS analysis; type: ADME, cell-based; conditions: hepatocytes
[14] = molecular target: T6, Vascular endothelial growth factor receptor 2 (Homo sapiens, UniProt P35968); assay: Inhibition of VEGFR2 (unknown origin) expressed in baculovirus infected insect cells using biotinylated-GGGGQDGKDYIVLPI peptide as substrate incubated for 1 to 4 hrs by TR-FRET assay
Histone deacetylase 3 [15] = molecular target: T1, Histone deacetylase 3; assay: Inhibition of HDAC3 (unknown origin) at 10 uM relative to control
Homo sapiens = organism: Homo sapiens; assay: Inhibition of Topoisomerase 2 (unknown origin) at 50 to 100 uM incubated for 15 mins in the presence of ATP by electrophoretic analysis; conditions: dose 50-100 µM
[16] = molecular target: T7, Bromodomain-containing protein 4 (Homo sapiens, UniProt O60885); assay: Inhibition of BRD4 BD2 (unknown origin) by TR-FRET assay
Histone deacetylase 1 [17] = molecular target: T5, Histone deacetylase 1; assay: Inhibition of HDAC1 (unknown origin) by fluorescence based assay
[18] = molecular target: T7, Bromodomain-containing protein 4; assay: Inhibition of BRD4 BD1 (unknown origin) incubated for 15 mins by TR-FRET analysis
[19] = molecular target: T6, Vascular endothelial growth factor receptor 2; assay: Inhibition of VEGFR2 (unknown origin) using poly (Glu,Tyr) 4:1 as substrate measured after 1 hr in presence of ATP by spectrophotometric analysis
[20] = molecular target: Vascular endothelial growth factor receptor 1 (Homo sapiens, UniProt P17948); assay: Inhibition of VEGFR1 (unknown origin)
[21] = molecular target: T3, Protein deacetylase HDAC6; assay: Inhibition of HDAC6 (unknown origin) using biotinylated histone H3 KAc peptide (1 to 21 residues) as substrate by HTRF assay
Histone deacetylase 1 [22] = molecular target: T5, Histone deacetylase 1; assay: Inhibition of human recombinant HDAC1 using fluorogenic substrate incubated for 30 mins by fluorescence based assay
Histone deacetylase 8 [23] = molecular target: T4, Histone deacetylase 8; assay: Inhibition of human HDAC8 using Boc-Lys (Ac)-AMC as substrate incubated for 60 mins by fluorimetric assay
[24] = molecular target: T3, Protein deacetylase HDAC6; assay: Inhibition of human recombinant HDAC6 using fluorogenic HDAC substrate by fluorescence assay
Histone deacetylase 1 [25] = molecular target: T5, Histone deacetylase 1; assay: Inhibition of HDAC1 (unknown origin) using ZMAL (Z-Lys(Ac)-AMC as fluorogenic substrate pre-incubated for 30 mins measured for 1 hr by fluorescence based analysis
[26] = molecular target: T2, Protein cereblon/Histone deacetylase 8; assay: PROTAC activity at HDAC8/CRBN in human HCT-116 cells assessed as degradation of HDAC8 by Western blot analysis; type: cell-based
Histone deacetylase 3 [27] = molecular target: T1, Histone deacetylase 3; assay: Inhibition of HDAC3 (unknown origin)
[28] = molecular target: T3, Protein deacetylase HDAC6; assay: Inhibition of HDAC6 (unknown origin)

T1 sequence (O15379 whole entry): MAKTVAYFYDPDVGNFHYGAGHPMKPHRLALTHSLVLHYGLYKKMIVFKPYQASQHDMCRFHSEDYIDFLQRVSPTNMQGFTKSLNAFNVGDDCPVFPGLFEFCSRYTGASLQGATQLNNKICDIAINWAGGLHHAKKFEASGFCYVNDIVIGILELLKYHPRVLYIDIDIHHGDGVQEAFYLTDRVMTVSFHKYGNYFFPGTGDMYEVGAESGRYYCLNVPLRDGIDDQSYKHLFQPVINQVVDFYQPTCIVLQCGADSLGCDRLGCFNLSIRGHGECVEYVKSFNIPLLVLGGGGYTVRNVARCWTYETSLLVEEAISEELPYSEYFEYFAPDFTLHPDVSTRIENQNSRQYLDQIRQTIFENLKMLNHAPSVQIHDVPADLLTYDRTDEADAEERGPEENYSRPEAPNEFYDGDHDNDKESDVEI
T5 sequence (Q13547 whole entry): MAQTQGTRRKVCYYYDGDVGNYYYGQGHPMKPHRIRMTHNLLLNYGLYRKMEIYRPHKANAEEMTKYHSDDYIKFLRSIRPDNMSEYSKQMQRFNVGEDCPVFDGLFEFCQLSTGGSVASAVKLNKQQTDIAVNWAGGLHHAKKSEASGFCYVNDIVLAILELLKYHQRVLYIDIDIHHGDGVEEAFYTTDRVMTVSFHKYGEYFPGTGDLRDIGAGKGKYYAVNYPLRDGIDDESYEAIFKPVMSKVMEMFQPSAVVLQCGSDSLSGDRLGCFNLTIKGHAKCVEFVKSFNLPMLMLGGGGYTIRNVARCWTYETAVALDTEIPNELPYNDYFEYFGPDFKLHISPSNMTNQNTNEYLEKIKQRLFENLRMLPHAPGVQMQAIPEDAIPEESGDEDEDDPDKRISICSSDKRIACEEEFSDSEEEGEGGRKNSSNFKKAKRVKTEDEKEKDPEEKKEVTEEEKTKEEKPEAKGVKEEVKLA
Chain of von Hippel-Lindau disease tumor suppressor/Histone deacetylase 1 (Q13547 whole entry): as above
Chain of von Hippel-Lindau disease tumor suppressor/Histone deacetylase 1 (P40337 whole entry): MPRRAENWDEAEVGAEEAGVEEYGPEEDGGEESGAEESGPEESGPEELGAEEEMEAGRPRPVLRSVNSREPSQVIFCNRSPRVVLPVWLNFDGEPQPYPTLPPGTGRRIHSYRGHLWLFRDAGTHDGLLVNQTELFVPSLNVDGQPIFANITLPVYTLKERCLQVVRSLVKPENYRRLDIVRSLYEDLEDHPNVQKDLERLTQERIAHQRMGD
Chain of von Hippel-Lindau disease tumor suppressor/Protein deacetylase HDAC6 (P40337 whole entry, one chain of several): as the sequence (P40337 whole entry) above
T6 sequence (P35968 whole entry): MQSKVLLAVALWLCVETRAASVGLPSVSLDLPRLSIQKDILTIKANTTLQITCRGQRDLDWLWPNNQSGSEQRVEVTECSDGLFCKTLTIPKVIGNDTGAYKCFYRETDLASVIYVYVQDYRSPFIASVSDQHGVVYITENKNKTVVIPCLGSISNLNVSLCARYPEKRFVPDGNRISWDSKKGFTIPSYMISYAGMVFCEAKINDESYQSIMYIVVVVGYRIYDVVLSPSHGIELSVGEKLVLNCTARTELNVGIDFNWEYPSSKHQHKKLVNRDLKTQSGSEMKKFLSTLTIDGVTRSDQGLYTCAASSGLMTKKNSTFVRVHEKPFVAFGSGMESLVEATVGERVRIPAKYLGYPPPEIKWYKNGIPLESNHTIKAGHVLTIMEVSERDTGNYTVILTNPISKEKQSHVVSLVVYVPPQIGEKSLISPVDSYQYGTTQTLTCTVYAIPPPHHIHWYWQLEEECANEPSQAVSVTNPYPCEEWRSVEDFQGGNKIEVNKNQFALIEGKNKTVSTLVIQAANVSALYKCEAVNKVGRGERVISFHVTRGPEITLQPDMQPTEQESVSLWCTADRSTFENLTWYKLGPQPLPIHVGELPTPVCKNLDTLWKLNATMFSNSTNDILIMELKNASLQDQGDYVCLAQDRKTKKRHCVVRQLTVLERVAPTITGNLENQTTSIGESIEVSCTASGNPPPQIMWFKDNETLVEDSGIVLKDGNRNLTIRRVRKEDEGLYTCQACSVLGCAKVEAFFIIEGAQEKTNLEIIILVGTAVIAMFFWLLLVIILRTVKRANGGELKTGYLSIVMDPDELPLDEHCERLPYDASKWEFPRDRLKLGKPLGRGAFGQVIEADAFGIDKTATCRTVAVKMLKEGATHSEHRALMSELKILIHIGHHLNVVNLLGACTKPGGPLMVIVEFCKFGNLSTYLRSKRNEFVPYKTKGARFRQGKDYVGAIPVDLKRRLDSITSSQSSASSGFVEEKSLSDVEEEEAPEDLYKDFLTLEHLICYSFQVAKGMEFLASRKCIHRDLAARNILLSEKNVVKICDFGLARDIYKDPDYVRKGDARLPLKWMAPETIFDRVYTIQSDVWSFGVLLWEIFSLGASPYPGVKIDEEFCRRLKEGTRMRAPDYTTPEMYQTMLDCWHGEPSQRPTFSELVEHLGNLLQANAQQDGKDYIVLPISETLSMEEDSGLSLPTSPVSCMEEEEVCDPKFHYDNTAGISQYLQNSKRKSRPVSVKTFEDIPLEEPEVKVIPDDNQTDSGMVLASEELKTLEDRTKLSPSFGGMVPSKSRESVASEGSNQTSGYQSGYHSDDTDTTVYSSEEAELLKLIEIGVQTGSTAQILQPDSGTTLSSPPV
T2 sequence (Q96SW2 whole entry, one chain of several): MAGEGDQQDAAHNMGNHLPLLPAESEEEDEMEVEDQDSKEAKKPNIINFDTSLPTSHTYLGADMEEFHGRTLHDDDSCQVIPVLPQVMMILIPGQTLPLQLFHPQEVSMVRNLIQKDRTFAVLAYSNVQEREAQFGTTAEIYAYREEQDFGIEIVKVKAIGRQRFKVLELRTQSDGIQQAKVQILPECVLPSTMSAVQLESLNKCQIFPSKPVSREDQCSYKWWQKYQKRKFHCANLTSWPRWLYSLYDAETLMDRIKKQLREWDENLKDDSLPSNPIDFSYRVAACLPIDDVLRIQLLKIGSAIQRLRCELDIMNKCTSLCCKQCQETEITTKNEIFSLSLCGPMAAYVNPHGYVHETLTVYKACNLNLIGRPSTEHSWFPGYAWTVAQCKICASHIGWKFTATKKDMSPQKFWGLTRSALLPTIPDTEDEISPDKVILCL
Chain of von Hippel-Lindau disease tumor suppressor/Histone deacetylase 2 (Q92769 whole entry): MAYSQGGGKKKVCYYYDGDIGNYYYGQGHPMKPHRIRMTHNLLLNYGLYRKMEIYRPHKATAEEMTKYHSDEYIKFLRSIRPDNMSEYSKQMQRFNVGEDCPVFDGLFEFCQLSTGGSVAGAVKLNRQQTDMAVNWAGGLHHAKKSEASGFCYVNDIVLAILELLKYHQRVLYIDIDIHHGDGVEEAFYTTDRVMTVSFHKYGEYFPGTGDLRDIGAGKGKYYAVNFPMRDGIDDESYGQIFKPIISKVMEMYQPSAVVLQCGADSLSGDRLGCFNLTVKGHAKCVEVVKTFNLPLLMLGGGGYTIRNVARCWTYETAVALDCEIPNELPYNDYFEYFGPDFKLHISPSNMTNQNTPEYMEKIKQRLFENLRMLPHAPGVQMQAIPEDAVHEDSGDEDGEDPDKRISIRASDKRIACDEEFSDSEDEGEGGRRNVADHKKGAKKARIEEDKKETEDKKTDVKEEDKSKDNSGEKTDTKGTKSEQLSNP
Chain of von Hippel-Lindau disease tumor suppressor/Histone deacetylase 2 (P40337 whole entry): as the sequence (P40337 whole entry) above
Chain of Protein cereblon/Histone deacetylase 3 (O15379 whole entry): as the sequence (O15379 whole entry) above
Chain of Protein cereblon/Histone deacetylase 3 (Q96SW2 whole entry): as the sequence (Q96SW2 whole entry, one chain of several) above
Chain of Cyclin-dependent kinase 4 (P11802 whole entry): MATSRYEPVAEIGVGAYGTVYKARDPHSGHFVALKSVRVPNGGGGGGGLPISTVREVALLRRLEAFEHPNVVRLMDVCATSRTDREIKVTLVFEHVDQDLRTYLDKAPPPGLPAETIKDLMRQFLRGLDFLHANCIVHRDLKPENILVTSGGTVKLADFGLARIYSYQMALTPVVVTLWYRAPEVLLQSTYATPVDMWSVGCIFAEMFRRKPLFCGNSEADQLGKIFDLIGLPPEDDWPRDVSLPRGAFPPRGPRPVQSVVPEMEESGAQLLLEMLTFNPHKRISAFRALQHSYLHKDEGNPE
Chain of Histone deacetylase 2 (Q92769 whole entry): as the sequence (Q92769 whole entry) above

## O=C(Cc1ccc2ncccc2c1)Nc1ccccc1O
Histone deacetylase 3 [1]
  IC50: 2000 nM

## COc1ccc(C(=O)NO)cc1NCc1ccc(OCc2cn(CCCCCNc3cccc4c3C(=O)N(C3CCC(=O)NC3=O)C4=O)nn2)cc1 (configuration not stated)
[2]
  DC50: 250 nM

## CCCNNC(=O)/C=C/c1ccc(CNCCc2c(C)[nH]c3ccccc23)cc1
[3]
  IC50: > 50 nM

## CCCNNC(=O)c1ccc(-c2ccc(NC(=O)CCCCCCC(=O)N[C@H](C(=O)N3C[C@H](O)C[C@H]3C(=O)N[C@@H](C)c3ccc(-c4scnc4C)cc3)C(C)(C)C)cc2)cc1
[4]
  DC50: 2000 nM
[5]
  DC50: 650 nM

## O=C(CCCCCCNC(=O)c1ccc(NC(=O)COCCOCCNC(=O)COc2cccc3c2C(=O)N(C2CCC(=O)NC2=O)C3=O)cc1)NO (configuration not stated)
[4]
  DC50: 248 nM
[5]
  DC50: 174 nM
[6]
  DC50: 139 nM
[7]
  DC50: 27 nM

## COc1ccc(-c2ccc3c(NC(=O)CCCCCCC(=O)NO)n[nH]c3c2)cc1
Histone deacetylase 8 [8]
  IC50: 4 nM
Histone deacetylase 1 [9]
  IC50: 2 nM
Histone deacetylase 2
  IC50: 4 nM

## Cc1ncsc1-c1ccc([C@H](C)NC(=O)[C@@H]2C[C@@H](O)CN2C(=O)[C@@H](NC(=O)COCCOCCOCC(=O)NCc2cccc(CNc3ncc(-c4nnc(C(F)F)o4)cn3)c2)C(C)(C)C)cc1
[7]
  DC50: 686 nM

## O=C(CCCCCCN1CCN(c2ccc(Nc3ncc(F)c(-c4cn(C5CCCC5)nn4)n3)cc2)CC1)NO
[10]
  IC50: 23 nM

## O=C(CCCN1CCN(C(=O)Nc2ccnc3ccccc23)CC1)NO
Histone deacetylase 8 [11]
  IC50: 2000 nM

## CCCNNC(=O)c1ccc(Nc2nccc(N(C)c3ccc4c(C)n(C)nc4c3)n2)cc1
Histone deacetylase 1 [12]
  IC50: 420 nM
[13]
  half-life: < 15 min
[14]
  IC50: 25 nM

## O=C(/C=C/c1ccc(CSc2nc3[nH]ncc3c(=O)n2-c2ccccc2)cc1)NO
Histone deacetylase 3 [15]
  inhibition: 88%
Homo sapiens
  inhibition: 82.1%

## Cc1sc2c(c1C)C(c1ccc(Cl)cc1)=N[C@@H](CC(=O)Nc1ccc(C(=O)Nc3ccccc3[N+](=O)[O-])cc1)c1nnc(C)n1-2
[16]
  IC50: 74 nM
Histone deacetylase 1 [17]
  IC50: 290 nM
[18]
  IC50: 720 nM

## Cc1ncsc1-c1ccc(CNC(=O)[C@@H]2C[C@@H](O)CN2C(=O)[C@@H](NC(=O)CCCCCCCCCCC(=O)Nc2ccc(C(=O)Nc3ccccc3N)cc2)C(C)(C)C)cc1
[5]
  DC50: 17000 nM

## Cc1c2ccc(N(C)c3ccnc(Nc4ccc(NC(=O)CCCCCCC(=O)NO)cc4)n3)cc2nn1C
[19]
  IC50: 16 nM
[20]
  IC50: 18 nM
[21]
  IC50: 94 nM
[13]
  half-life: < 15 min
Histone deacetylase 1 [22]
  IC50: 120 nM

## O=C(COc1ccc2c(c1)OC1(CCN(Cc3cc(Cl)cc(Cl)c3)CC1)CC2=O)NO
Histone deacetylase 8 [23]
  IC50: 8 µM
[24]
  IC50: 80 nM

## CN(c1ccccc1)c1ncc(NC(=O)CS)cn1
Histone deacetylase 1 [25]
  IC50: 2000 nM
[24]
  IC50: 73 nM

## O=C1CCC(N2C(=O)c3cccc(NCCCCCCCCCCCNC(=O)Nc4cccc(SCc5cn(-c6cccc(C(=O)NO)c6)nn5)c4)c3C2=O)C(=O)N1 (configuration not stated)
[26]
  DC50: 53 nM

## Nc1ccccc1NC(=O)Cc1ccc2ncccc2c1
Histone deacetylase 3 [27]
  IC50: 560 nM

## O=C(COc1ccc2c(c1)OC1(CCN(Cc3cc(F)cc(F)c3)CC1)CC2=O)NO
Histone deacetylase 8 [23]
  IC50: 9 µM
[24]
  IC50: 80 nM

## O=C(CS)Nc1ccc(Cn2c3c(c4ccccc42)CS(=O)(=O)CC3)cc1
[28]
  IC50: 130 nM

## O=C(Cc1ccc(C(=O)NO)cc1)Nc1ccc2ncnc(Nc3ccc(Br)c(F)c3)c2c1
Histone deacetylase 1 [25]
  IC50: 742 nM
[24]
  IC50: 15 nM

## Cc1ccccc1/C=C/C(=O)Nc1ccc(C(=O)NS(=O)(=O)c2ccc(NCCCCCCC(=O)NO)c([N+](=O)[O-])c2)c(Oc2ccccc2)c1
Histone deacetylase 1 [25]
  IC50: 102 nM
[24]
  IC50: 3 nM
